# Toxic doses and inconclusive results are not listed.
# Tested on: CD2F1 mice, L1210 leukemia ip, survival T/C
# Experiment: NCI In Vivo Anticancer Drug Screen. Data for tumor model L1210 Leukemia (intraperitoneal) in CD2F1 (CDF1) mice
# Conditions: higher = longer survival
# In short: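 Transplantable tumor in mice; compound-treated vs vehicle-treated groups. Read-out = treated/control ratio of the measured endpoint.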
# [1] = endpoint: mean survival time, dose: 100.0 mg/kg/injection, schedule: Q01DX009 (ip), vehicle: saline with Tween-80
# [2] = endpoint: mean survival time, dose: 200.0 mg/kg/injection, schedule: Q01DX009 (ip), vehicle: saline with Tween-80
smiles,measurement,setting,value
C[C@@]1(CO)[C@H](O)CC[C@@]2(C)[C@H]1CC[C@H]1C[C@@H]3C[C@@]12CC[C@@]3(O)COC(=O)CN,T/C,"endpoint: median survival time, dose: 0.2 mg/kg/injection, schedule: Q01DX009 (ip), vehicle: saline + alcohol",100 % of control
same,T/C,"endpoint: median survival time, dose: 0.4 mg/kg/injection, schedule: Q01DX009 (ip), vehicle: saline + alcohol",106 % of control
same,T/C,"endpoint: median survival time, dose: 0.8 mg/kg/injection, schedule: Q01DX009 (ip), vehicle: saline + alcohol",107 % of control
same,T/C,"endpoint: median survival time, dose: 1.6 mg/kg/injection, schedule: Q01DX009 (ip), vehicle: saline + alcohol",102 % of control
same,T/C,"endpoint: median survival time, dose: 5.0 mg/kg/injection, schedule: Q03HX027 (ip), vehicle: saline + alcohol",101 % of control
same,T/C,"endpoint: median survival time, dose: 6.25 mg/kg/injection, schedule: Q01DX009 (ip), vehicle: saline + alcohol",105 % of control
same,T/C,"endpoint: median survival time, dose: 10.0 mg/kg/injection, schedule: Q03HX027 (ip), vehicle: saline + alcohol",109 % of control
same,T/C,"endpoint: median survival time, dose: 12.5 mg/kg/injection, schedule: Q01DX009 (ip), vehicle: saline + alcohol",106 % of control
same,T/C,"endpoint: median survival time, dose: 20.0 mg/kg/injection, schedule: Q03HX027 (ip), vehicle: saline + alcohol",116 % of control
same,T/C,"endpoint: median survival time, dose: 25.0 mg/kg/injection, schedule: Q01DX005 (ip), vehicle: saline",112 % of control
same,T/C,"endpoint: median survival time, dose: 25.0 mg/kg/injection, schedule: Q01DX009 (ip), vehicle: saline + alcohol",107 % of control
same,T/C,"endpoint: median survival time, dose: 36.0 mg/kg/injection, schedule: Q01DX005 (ip), vehicle: saline",115 % of control
same,T/C,"endpoint: median survival time, dose: 36.0 mg/kg/injection, schedule: Q01DX009 (ip), vehicle: saline",110 % of control
same,T/C,"endpoint: median survival time, dose: 50.0 mg/kg/injection, schedule: Q01DX005 (ip), vehicle: saline",116 % of control
same,T/C,"endpoint: median survival time, dose: 50.0 mg/kg/injection, schedule: Q01DX009 (ip), vehicle: saline + alcohol",116 % of control
same,T/C,"endpoint: median survival time, dose: 60.0 mg/kg/injection, schedule: Q01DX005 (ip), vehicle: saline",116 % of control
same,T/C,"endpoint: median survival time, dose: 60.0 mg/kg/injection, schedule: Q01DX009 (ip), vehicle: saline",110 % of control
same,T/C,"endpoint: median survival time, dose: 100.0 mg/kg/injection, schedule: Q01DX005 (ip), vehicle: saline",122 % of control
same,T/C,"endpoint: median survival time, dose: 100.0 mg/kg/injection, schedule: Q01DX009 (ip), vehicle: saline",151 % of control
same,T/C,"endpoint: median survival time, dose: 166.6 mg/kg/injection, schedule: Q01DX009 (ip), vehicle: saline",153 % of control
same,T/C,"endpoint: median survival time, dose: 12.5 micrograms/kg/injection, schedule: Q01DX009 (ip), vehicle: saline + alcohol",103 % of control
same,T/C,"endpoint: median survival time, dose: 25.0 micrograms/kg/injection, schedule: Q01DX009 (ip), vehicle: saline + alcohol",103 % of control
same,T/C,"endpoint: median survival time, dose: 50.0 micrograms/kg/injection, schedule: Q01DX009 (ip), vehicle: saline + alcohol",103 % of control
same,T/C,"endpoint: median survival time, dose: 100.0 micrograms/kg/injection, schedule: Q01DX009 (ip), vehicle: saline + alcohol",101 % of control
same,T/C,"endpoint: median survival time, dose: 200.0 micrograms/kg/injection, schedule: Q01DX009 (ip), vehicle: saline + alcohol",102 % of control
CC(=O)c1ccc(N=NNc2ccc(C(C)=O)cc2)cc1,T/C,"endpoint: mean survival time, dose: 100.0 mg/kg/injection, schedule: Q01DX001 (ip), vehicle: saline with Tween-80",103 % of control
same,T/C,[1],96 % of control
same,T/C,"endpoint: mean survival time, dose: 200.0 mg/kg/injection, schedule: Q01DX001 (ip), vehicle: saline with Tween-80",95 % of control
same,T/C,[2],95 % of control
same,T/C,"endpoint: mean survival time, dose: 400.0 mg/kg/injection, schedule: Q01DX001 (ip), vehicle: saline with Tween-80",95 % of control
CCOC(=O)/C=C/c1ccc(O)cc1,T/C,"endpoint: mean survival time, dose: 100.0 mg/kg/injection, schedule: Q04DX003 (ip), vehicle: Klucel (hydroxypropylcellulose) (HPC)",102 % of control
same,T/C,"endpoint: mean survival time, dose: 200.0 mg/kg/injection, schedule: Q04DX003 (ip), vehicle: Klucel (hydroxypropylcellulose) (HPC)",98 % of control
same,T/C,"endpoint: mean survival time, dose: 400.0 mg/kg/injection, schedule: Q04DX003 (ip), vehicle: Klucel (hydroxypropylcellulose) (HPC)",98 % of control
O=C(Nc1nc2c(ccc3ccccc32)s1)Nc1ccccc1F,T/C,"endpoint: mean survival time, dose: 50.0 mg/kg/injection, schedule: Q01DX009 (ip), vehicle: saline with Tween-80",94 % of control
same,T/C,[1],97 % of control
same,T/C,[2],105 % of control
CC1(C)OC2C(/C=N\O)OC(n3cnc4c(N)ncnc43)C2O1 (centres undefined),T/C,"endpoint: median survival time, dose: 12.5 mg/kg/injection, schedule: Q01DX005 (ip), vehicle: distilled water + Tween-80",98 % of control
same,T/C,"endpoint: median survival time, dose: 25.0 mg/kg/injection, schedule: Q01DX005 (ip), vehicle: distilled water + Tween-80",90 % of control
same,T/C,"endpoint: median survival time, dose: 50.0 mg/kg/injection, schedule: Q01DX005 (ip), vehicle: distilled water + Tween-80",96 % of control
same,T/C,"endpoint: median survival time, dose: 100.0 mg/kg/injection, schedule: Q01DX005 (ip), vehicle: distilled water + Tween-80",101 % of control
same,T/C,"endpoint: median survival time, dose: 200.0 mg/kg/injection, schedule: Q01DX005 (ip), vehicle: distilled water + Tween-80",101 % of control
O=C(O)c1ccccc1.[Pb],T/C,"endpoint: mean survival time, dose: 100.0 mg/kg/injection, schedule: Q01DX001 (ip), vehicle: saline",94 % of control
same,T/C,"endpoint: mean survival time, dose: 200.0 mg/kg/injection, schedule: Q01DX001 (ip), vehicle: saline",102 % of control
same,T/C,"endpoint: mean survival time, dose: 400.0 mg/kg/injection, schedule: Q01DX001 (ip), vehicle: saline",96 % of control

# From PubChem BioAssay AID256 (DTP/NCI, 2004)
